Results as given in patent publication US20250073226A1, “USE OF OPIOID FOR TREATMENT OF AUTISM SPECTRUM DISORDERS” (priority 2021, published 2025).

How the values were obtained:
[1] = system: valproic acid model mice (VPA model); assay: Social interaction test in valproic acid model mice; assay type: in vivo, ICR mice; settings: single s.c. dose
Text: Since ASD-like symptoms such as social impairment and cognitive dysfunction are observed, it is one of the most widely used the ASD model mice.
As the sociality evaluation, a method called a social interaction test was used. In the Social Interaction Test, two mice are placed in one cage, and how many seconds a target mouse (Test mouse) performs sniffing, which is social behavior, on another mouse (Intruder mouse) is quantified.

VPA model [2] = assay: Confirmation of continuous effect: social behavior in VPA model 3 or 12 hours after administration; assay type: in vivo, mice; settings: 0.003 mg/kg s.c.
Procedure: Saline or buprenorphine was subcutaneously administered to the VPA model in the same manner as in Example 1, and the amount of social behavior for 20 minutes from 3 hour after administration or for 20 minutes from 12 hours after administration was quantified. The improvement effect in social impairment by administration of 0.003 mg/kg of buprenorphine was observed even 3 hours and 12 hours after administration.

Fmr1 knockout mice = assay: 3 chamber test in Fmr1 knockout mice; assay type: in vivo; settings: single subcutaneous administration, low dose of less than 1/10 of 1 mg/kg
Text: It is known that patients with human fragile X syndrome (FXS), which is caused by abnormalities of the X chromosome, present with social impairment symptoms, such as those often seen in ASD (Non-patent Documents 7 to 9). The Fmr1 knockout mouse (Cell, 1994, 15; 78 (1): 23-33) is a model mouse that mimics human fragile X syndrome (FXS), and is also widely used as a model of ASD. Buprenorphine hydrochloride, a MOR partial agonist used as an analgesic, and physiological saline of a solvent were administered once, and the action on social dysfunction of Fmr1 knockout mice was examined. The dose was calculated as a free form for buprenorphine. As a social function evaluation, a 3 chamber test (Nature Medicine, 2017, 23; p674-677) was used. In the 3chamber test, two types of mice (Unfamiliar and Familiar) are placed in cups at both left and right ends of three compartments, and a ratio of time to search for a mouse with high novelty to a mouse with low novelty is calculated and quantified as social function (preference to a mouse with high novelty).

VPA model [3] = assay: Antagonist test with naloxone in VPA model; assay type: in vivo, mice; settings: naloxone hydrochloride 1 mg/kg s.c. 15 minutes before buprenorphine 0.003 mg/kg s.c.
Procedure: In the same manner as in Example 1, to the VPA model, Saline or a MOR selective antagonist, naloxone hydrochloride was subcutaneously administered so as to be 1 mg/kg as a hydrochloride, and 15 minutes after that, 0.003 mg/kg of buprenorphine was subcutaneously administered, and the amount of social behavior for 1 hour from 20 minutes after administration of buprenorphine was quantified.

medial prefrontal cortex = assay: Brain activation: c-Fos positive cells in medial prefrontal cortex; assay type: in vivo, mice; settings: VPA model, 1 hour after administration
Procedure: Saline or buprenorphine at 0.0003, 0.003, or 0.03 mg/kg was administered to the VPA model, and 1 hour after that, the brain was extracted and immunostained with an anti-c-Fos antibody, and the number of c-Fos positive cells in nucleus accumens (NAc) and medial prefrontal cortex, which are brain regions known to promote social behavior, and dorsomedial periaqueductal gray (dmPAG), which is a brain region known to reduce social behavior and to be involved in the expression of analgesic effects, was quantified as the number of activated nerve cells.

mice = settings: Non-patent Document 28, cited from earlier work
[4] = Estimation of buprenorphine maximum plasma concentration in humans by proportional calculation; settings: human, other: transdermal, 10 ug/kg
Procedure: As described above, preferred maximum plasma concentrations in ASD applications in mice are in the range of 26.6 pg/mL (at the time of administration of 0.3 pg/kg) to 2360 μg/mL (at the time of administration of 30p/kg) (preferably more than about 26.6 pg/mL and less than about 2360 μg/mL).

CO[C@]12CC[C@@]3(C[C@@H]1[C@](C)(O)C(C)(C)C)[C@H]1Cc4ccc(O)c5c4[C@@]3(CCN1CC1CC1)[C@H]2O5 [buprenorphine, 21-cyclopropyl-7-a-[(S)-1-hydroxy-1,2,2-trimethylpropyl]-6,14-endo-ethano-6,7,8,14 tetrahydrooripavine]
improvement effect in social impairment at a high dose ([1]; high dose close to the analgesic dose): reduced the improvement effect in social impairment
improvement effect in social impairment ([1]; low dose of less than 1/10 of the dose of maximum analgesic effect, 20 minutes from 1 hour after administration): significant improvement effect in social impairment
improvement effect in social impairment 3 hours after administration (VPA model [2]; 20 minutes from 3 hour after administration): observed
improvement effect in social impairment 12 hours after administration (VPA model [2]; 20 minutes from 12 hours after administration): observed
improvement effect in social impairment (3 chamber test) (Fmr1 knockout mice): significant improvement effect in social impairment
improvement effect in social impairment with combined use of naloxone (VPA model [3]): antagonized by combined use of naloxone
number of activated nerve cells (c-Fos positive cells) (medial prefrontal cortex; 0.003 mg/kg): significantly increased
number of activated nerve cells (c-Fos positive cells) (medial prefrontal cortex; 0.03 mg/kg): significantly increased
dose at which the analgesic effect was maximum (mice): 1 mg/kg
minimum dose at which the analgesic effect is observed (mice; subcutaneous administration): 0.01 mg/kg
Cmax [4]: 0.084 to 0.176 ng/mL
